{"source": "patent US20230159527A1", "about": "“COMPOUNDS AS BCL-2 INHIBITORS” (Fochon Pharmaceuticals, Ltd., priority 2020, published 2023)", "key": {"RS4;11 cells": {"tested_on": "RS4;11 cells", "assay": "Cell proliferation assay, RS4;11 cells (MTS, 72 h)", "type": "cell-based", "conditions": "Homo sapiens, RS4;11 cell proliferation", "experimental": "MTS testing kit was purchased from Promega. The RPMI-1640, Fetal bovine serum and Penicillin-Streptomycin were purchased from Gibco. Dimethyl sulfoxide (DMSO) was purchased from Sigma.\nTo investigate whether a compound is able to inhibit the activity of Bcl-2 in cells, a mechanism-based assay using RS4;11 (ATCC® CRL-1873™) cell was developed. In this assay, inhibition of Bcl-2 was detected by the inhibition of RS4;11 cells proliferation. RS4;11 cells were cultured in culture flasks to 40-80% confluence in RPMI-1640 plus 10% fetal bovine serum. Cells were collected and plated onto 96-well plates at desired cell density (30000 cells/well). Plates were incubated overnight at 37° C., with 5% CO2 to adhere. Compounds were added to the plates, and the final compound concentrations were 10000, 3333, 1111, […], 41, 14, 4.6 and 1.5 nM. Plates plated with RS4;11 cells were placed at 37° C., with 5% CO2 for 72 h. 20 μl MTS/100 μl medium mixture solution were added to each well and incubate the plates for exactly 2 hours. The reaction was stopped by adding 25 μl 10% SDS per well. Measure absorbance at 490 nm and 650 nm (reference wavelength). IC50 was calculated using GraphPad Prism 5.0."}, "DoHH2 cells": {"tested_on": "DoHH2 cells", "assay": "Cell proliferation assay, DoHH2 cells (MTS, 120 h)", "type": "cell-based", "conditions": "Homo sapiens, DOHH-2", "how_it_was_run": "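DoHH2 cells in RPMI-1640 with 10% FBS were plated at 5000/well and rested 4 h. They were then exposed to compound at nine final concentrations (10000 to 1.5 nM) for 120 h at 37 °C. Viability was read by MTS (2 h, A490) and IC50 derived by curve fitting.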"}}}
{"smiles": "CC(C)c1ccccc1[C@@H]1CCCN1C1CC2(CCN(c3ccc(C(=O)NS(=O)(=O)c4cc([N+](=O)[O-])c5c(n4)OC[C@H](Cc4ccccn4)N5)c(Oc4cnc5[nH]ccc5c4)c3)CC2)C1", "note": "(single isomer, unassigned) [Example B-38, 2-((1H-pyrrolo[2,3-b]pyridin-5-yl)oxy)-4-(2-((R or S)-2-(2-isopropylphenyl)pyrrolidin-1-yl)-7-azaspiro[3.5]nonan-7-yl)-N-(((S)-8-nitro-2-(pyridin-2-ylmethyl)-2,3-dihydro-1H-pyrido [2,3-b][1,4]oxazin-6-yl)sulfonyl) benzamide]", "values": [{"measurement": "IC50", "setting": "RS4;11 cells", "value": "≤ 1", "unit": "nM"}, {"measurement": "IC50", "setting": "DoHH2 cells", "value": "≤ 1", "unit": "nM"}]}
{"smiles": "O=C(NS(=O)(=O)c1cc([N+](=O)[O-])c2c(n1)OC[C@H](Cc1ccccn1)N2)c1ccc(N2CCC3(CC2)CC(N2CCC[C@H]2c2ccccc2C2CC2)C3)cc1Oc1cnc2[nH]ccc2c1", "note": "(single isomer, unassigned) [Example B-45, 2-((1H-pyrrolo[2,3-b]pyridin-5-yl)oxy)-4-(2-((R or S)-2-(2-cyclopropylphenyl)pyrrolidin-1-yl)-7-azaspiro[3.5]nonan-7-yl)-N-(((S)-8-nitro-2-(pyridin-2-ylmethyl)-2,3-dihydro-1H-pyrido [2,3-b][1,4]oxazin-6-yl)sulfonyl) benzamide]", "values": [{"measurement": "IC50", "setting": "RS4;11 cells", "value": "≤ 1", "unit": "nM"}, {"measurement": "IC50", "setting": "DoHH2 cells", "value": "≤ 1", "unit": "nM"}]}
{"smiles": "CC(C)c1ccccc1[C@@H]1COCCN1C1CC2(CCN(c3ccc(C(=O)NS(=O)(=O)c4cc([N+](=O)[O-])c5c(n4)OC[C@H]([C@H]4CC[C@](C)(O)CC4)N5)c(Oc4cnc5[nH]ccc5c4)c3)CC2)C1", "note": "(single isomer, unassigned) [Example B-47, 2-((1H-pyrrolo[2,3-b]pyridin-5-yl)oxy)-N-(((S)-2-((1r,4S)-4-hydroxy-4-methylcyclohexyl)-8-nitro-2,3-dihydro-1H-pyrido[2,3-b][1,4]oxazin-6-yl)sulfonyl)-4-(2-((R or S)-3-(2-isopropylphenyl)morpholino)-7-azaspiro[3.5]nonan-7-yl) benzamide]", "values": [{"measurement": "IC50", "setting": "RS4;11 cells", "value": "≤ 1", "unit": "nM"}, {"measurement": "IC50", "setting": "DoHH2 cells", "value": "≤ 1", "unit": "nM"}]}
{"smiles": "O=C(NS(=O)(=O)c1cc([N+](=O)[O-])c2c(n1)OC[C@H](C1CC1)N2)c1ccc(N2CCC3(CC2)CC(N2CCCC2c2ccccc2C2CC2)C3)cc1Oc1cnc2[nH]ccc2c1", "note": "(single isomer, unassigned) [Example B-52, 2-((1H-pyrrolo[2,3-b]pyridin-5-yl)oxy)-N-(((S)-2-cyclopropyl-8-nitro-2,3-dihydro-1H-pyrido[2,3-b] [1,4]oxazin-6-yl)sulfonyl)-4-(2-((R or S)-2-(2-cyclopropylphenyl)pyrrolidin-1-yl)-7-azaspiro[3.5]nonan-7-yl)benzamide]", "values": [{"measurement": "IC50", "setting": "RS4;11 cells", "value": "≤ 1", "unit": "nM"}, {"measurement": "IC50", "setting": "DoHH2 cells", "value": "≤ 1", "unit": "nM"}]}
{"smiles": "CCS(=O)(CC)=NC1CCC(CNc2ncc(S(=O)(=O)NC(=O)c3ccc(N4CCC5(CC4)CC(N4CCC[C@@H]4c4ccccc4C4CC4)C5)cc3Oc3cnc4[nH]ccc4c3)cc2[N+](=O)[O-])CC1", "note": "(stereo partly drawn) [Example A-2b, (R)-2-((1H-pyrrolo[2,3-b]pyridin-5-yl)oxy)-4-(2-(2-(2-cyclopropylphenyl)pyrrolidin-1-yl)-7-azaspiro[3.5]nonan-7-yl)-N-((6-(((4-((diethyl(oxo)-λ^6-sulfanylidene)amino)cyclohexyl)methyl)amino)-5-nitropyridin-3-yl)sulfonyl)benzamide]", "values": [{"measurement": "IC50", "setting": "RS4;11 cells", "value": "≤ 1", "unit": "nM"}, {"measurement": "IC50", "setting": "DoHH2 cells", "value": "≤ 1", "unit": "nM"}]}
{"smiles": "CC(C)c1ccccc1[C@@H]1CCCN1C1CC2(CCN(c3ccc(C(=O)NS(=O)(=O)c4cnc(NCC5CCOCC5)c([N+](=O)[O-])c4)c(Oc4cnc5[nH]ccc5c4)c3)CC2)C1", "note": "[Example A-5a, (5)-2-((1H-pyrrolo[2,3-b]pyridin-5-yl)oxy)-4-(2-(2-(2-isopropyl-phenyl)pyrrolidin-1-yl)-7-azaspiro [3.5]nonan-7-yl)-N-((5-nitro-6-(((tetrahydro-2H-pyran-4-yl)methyl)amino)pyridin-3-yl)sulfonyl) benzamide]", "values": [{"measurement": "IC50", "setting": "RS4;11 cells", "value": "≤ 1", "unit": "nM"}, {"measurement": "IC50", "setting": "DoHH2 cells", "value": "≤ 1", "unit": "nM"}]}
{"smiles": "CC(C)c1ccccc1[C@H]1CCCN1C1CC2(CCN(c3ccc(C(=O)NS(=O)(=O)c4cnc(NCC5CCC(N=S(C)(C)=O)CC5)c([N+](=O)[O-])c4)c(Oc4cnc5[nH]ccc5c4)c3)CC2)C1", "note": "(stereo partly drawn) [Example A-10b, (R)-2-((1H-pyrrolo[2,3-b]pyridin-5-yl)oxy)-N-((6-(((4-((dimethyl (oxo)-λ^6-sulfanylidene)amino)cyclo-hexyl)methyl)amino)-5-nitropyridin-3-yl)sulfonyl)-4-(2-(2-(2-isopropyl-phenyl)pyrrolidin-1-yl)-7-azaspiro [3.5]nonan-7-yl)benzamide]", "values": [{"measurement": "IC50", "setting": "RS4;11 cells", "value": "≤ 1", "unit": "nM"}, {"measurement": "IC50", "setting": "DoHH2 cells", "value": "≤ 1", "unit": "nM"}]}
{"smiles": "CCc1ccccc1[C@H]1CCCN1C1CC2(CCN(c3ccc(C(=O)NS(=O)(=O)c4cnc(NCC5CCC(N=S6(=O)CCOCC6)CC5)c([N+](=O)[O-])c4)c(Oc4cnc5[nH]ccc5c4)c3)CC2)C1", "note": "(stereo partly drawn) [Example A-21b, (R)-2-((1H-pyrrolo[2,3-b]pyridin-5-yl)oxy)-4-(2-(2-(2-ethylphenyl)pyrrolidin-1-yl)-7-azaspiro[3.5]nonan-7-yl)-N-((5-nitro-6-(((4-((4-oxido-1,4λ^6-oxathian-4-ylidene)amino)cyclohexyl)methyl)amino)pyridin-3-yl)sulfonyl)benzamide]", "values": [{"measurement": "IC50", "setting": "RS4;11 cells", "value": "≤ 1", "unit": "nM"}, {"measurement": "IC50", "setting": "DoHH2 cells", "value": "≤ 1", "unit": "nM"}]}
{"smiles": "O=C(NS(=O)(=O)c1cnc(NCC2CCC(N=S3(=O)CCOCC3)CC2)c([N+](=O)[O-])c1)c1ccc(N2CCC3(CC2)CC(N2CCC[C@@H]2c2ccccc2C2CC2)C3)cc1Oc1cnc2[nH]ccc2c1", "note": "(stereo partly drawn) [Example A-23b, (R)-2-((1H-pyrrolo[2,3-b]pyridin-5-yl)oxy)-4-(2-(2-(2-cyclopropyl-phenyl)pyrrolidin-1-yl)-7-azaspiro [3.5]nonan-7-yl)-N-((5-nitro-6-(((4-((4-oxido-1,4λ^6-oxathian-4-ylidene)amino)cyclohexyl)methyl)amino)pyridin-3-yl)sulfonyl) benzamide]", "values": [{"measurement": "IC50", "setting": "RS4;11 cells", "value": "≤ 1", "unit": "nM"}, {"measurement": "IC50", "setting": "DoHH2 cells", "value": "≤ 1", "unit": "nM"}]}
{"smiles": "O=C(NS(=O)(=O)c1cnc(NCC2(F)CCOCC2)c([N+](=O)[O-])c1)c1ccc(N2CCC3(CC2)CC(N2CCC[C@H]2c2ccccc2C2CC2)C3)cc1Oc1cnc2[nH]ccc2c1", "note": "[Example A-32a, (S)-2-((1H-pyrrolo[2,3-b]pyridin-5-yl)oxy)-4-(2-(2-(2-cyclopropyl-phenyl)pyrrolidin-1-yl)-7-azaspiro [3.5]nonan-7-yl)-N-((6-(((4-fluoro-tetrahydro-2H-pyran-4-yl)methyl)amino)-5-nitropyridin-3-yl)sulfonyl)benzamide]", "values": [{"measurement": "IC50", "setting": "RS4;11 cells", "value": "≤ 1", "unit": "nM"}, {"measurement": "IC50", "setting": "DoHH2 cells", "value": "≤ 1", "unit": "nM"}]}
{"smiles": "O=C(NS(=O)(=O)c1cnc(NCC2(F)CCOCC2)c([N+](=O)[O-])c1)c1ccc(N2CCC3(CC2)CC(N2CCC[C@@H]2c2ccccc2C2CC2)C3)cc1Oc1cnc2[nH]ccc2c1", "note": "[Example A-32b, (R)-2-((1H-pyrrolo[2,3-b]pyridin-5-yl)oxy)-4-(2-(2-(2-cyclopropyl-phenyl)pyrrolidin-1-yl)-7-azaspiro [3.5]nonan-7-yl)-N-((6-(((4-fluoro-tetrahydro-2H-pyran-4-yl)methyl)amino)-5-nitropyridin-3-yl)sulfonyl)benzamide]", "values": [{"measurement": "IC50", "setting": "RS4;11 cells", "value": "≤ 1", "unit": "nM"}, {"measurement": "IC50", "setting": "DoHH2 cells", "value": "≤ 1", "unit": "nM"}]}
{"smiles": "O=C(NS(=O)(=O)c1cc([N+](=O)[O-])c(NCC2CCOCC2)cn1)c1ccc(N2CCC3(CC2)CC(N2CCC[C@@H]2c2ccccc2C2CC2)C3)cc1Oc1cnc2[nH]ccc2c1", "note": "[Example B-1b, (R)-2-((1H-pyrrolo[2,3-b]pyridin-5-yl)oxy)-4-(2-(2-(2-cyclopropylphenyl)pyrrolidin-1-yl)-7-azaspiro[3.5]nonan-7-yl)-N-((4-nitro-5-(((tetrahydro-2H-pyran-4-yl)methyl)amino)pyridin-2-yl)sulfonyl)benzamide]", "values": [{"measurement": "IC50", "setting": "RS4;11 cells", "value": "≤ 1", "unit": "nM"}, {"measurement": "IC50", "setting": "DoHH2 cells", "value": "≤ 1", "unit": "nM"}]}
